The values that follow come from patent publication US5462926A (Biomeasure, Inc., priority 1993, dated 1995).

One test concerns the target T1, NMB receptor (Rattus norvegicus, UniProt P24053).
T1 sequence (P24053 1-390): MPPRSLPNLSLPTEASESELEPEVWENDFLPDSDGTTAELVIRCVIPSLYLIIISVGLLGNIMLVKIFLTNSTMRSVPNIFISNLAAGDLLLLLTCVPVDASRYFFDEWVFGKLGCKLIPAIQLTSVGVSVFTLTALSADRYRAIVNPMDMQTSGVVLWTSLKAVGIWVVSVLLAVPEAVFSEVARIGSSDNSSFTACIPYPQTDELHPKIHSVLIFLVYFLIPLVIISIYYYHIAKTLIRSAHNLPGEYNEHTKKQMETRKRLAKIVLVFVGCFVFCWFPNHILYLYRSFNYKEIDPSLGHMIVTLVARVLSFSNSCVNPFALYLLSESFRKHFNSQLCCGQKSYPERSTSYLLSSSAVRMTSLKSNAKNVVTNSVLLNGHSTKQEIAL
The experiment in a line: NMB membrane receptor assay, 125I-NMB, rat olfactory bulb membranes. The format is binding. More on the design: Membranes were prepared from rat olfactory bulb (NMB membrane receptor assay); from tissue; host or cells: rat olfactory bulb membranes. Particulars: for Ki: Cheng method, unit inferred, read-out: affinity, 125I-NMB, Rat Olfactory bulb membranes (neuromedin B receptors).

In test [1] the target is T2, GRP receptor (Rattus norvegicus, UniProt P52500). As to the kind of experiment: Amylase release from rat pancreatic acini (alone or Bn-stimulated). It counts as cell-based. More on the design: from tissue; host or cells: dispersed pancreatic acini. The note with it: for Amylase Release, analog Alone (10 μM): analog 10 μM alone, control 4 ± 1; for Amylase Release, analog Plus Bn (0.3 nM): analog 10 μM plus Bn 0.3 nM, Bn without analog 15 ± 1; for IC50: read-out: IC50 Amylase Release, GRP Receptor, Rat Pancreatic Acini. A digest of the protocol:
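Rat pancreatic acini incubated 30 min at 37° C without additives or with somatostatin octapeptide analog, Bn, NMB or combinations. Amylase release expressed as percent of total cellular amylase released during incubation; for inhibition, somatostatin analog (10 μM) tested on 0.3 nM Bn-stimulated release.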

The target of test [2] is T2, GRP receptor. As to the kind of experiment: GRP membrane receptor assay, 125I-[Tyr4]Bn, AR 42J cell membranes. The format is binding. Also on record: endogenous in cells; host or cells: rat AR 42J pancreatic acinar tumor cell membranes. The note with it: read-out: affinity, 125I-[Tyr4]Bn, AR 42J Cell Membranes (GRP receptors); Cheng method; unit inferred.

Where a SMILES comes first, the peptide text is derived from it. Bridges are numbered along the chain shown (N, C = ends). [ ]: non-standard residue; d: D form. 2Nal = N[C@@H](Cc1ccc2ccccc2c1)C(=O)O; d2Nal = N[C@H](Cc1ccc2ccccc2c1)C(=O)O

T2 sequence (P52500 whole entry): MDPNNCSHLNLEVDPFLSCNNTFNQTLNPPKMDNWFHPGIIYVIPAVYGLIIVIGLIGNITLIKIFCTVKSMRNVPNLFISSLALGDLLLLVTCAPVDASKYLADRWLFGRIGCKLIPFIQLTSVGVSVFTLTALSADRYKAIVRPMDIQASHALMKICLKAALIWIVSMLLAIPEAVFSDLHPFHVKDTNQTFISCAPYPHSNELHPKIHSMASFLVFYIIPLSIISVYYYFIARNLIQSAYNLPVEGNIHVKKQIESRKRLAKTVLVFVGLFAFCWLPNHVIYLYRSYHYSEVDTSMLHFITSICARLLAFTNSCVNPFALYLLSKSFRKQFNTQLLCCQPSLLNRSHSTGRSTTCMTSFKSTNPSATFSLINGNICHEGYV

For `CC(C)[C@@H]1NC(=O)[C@H](CCCCN)NC(=O)[C@@H](Cc2c[nH]c3ccccc23)NC(=O)[C@H](Cc2ccc(O)cc2)NC(=O)[C@@H](NC(=O)[C@H](N)Cc2ccccc2)CSSC[C@@H](C(=O)N[C@@H](Cc2ccc3ccccc3c2)C(N)=O)NC1=O` [Analog #4, H2 -D-Phe-Cys-Tyr-D-Trp-Lys-Val-Cys-Nal-NH2] (H-[dF]CY[dW]KVC[2Nal]-NH2; disulfide 2-7), the Ki at NMB receptor stood at 245 ± 130 nM. On GRP receptor [1], the “Amylase Release, analog Alone (10 μM)” value came out at 4 ± 2 % total; the “Amylase Release, analog Plus Bn (0.3 nM)” value was found to be 14 ± 1 % total; the IC50 was more than 10000 nM. The Ki on GRP receptor [2] turned out to be 2000 ± 150 nM.
In the case of `C[C@@H](O)[C@@H]1NC(=O)[C@H](CCCCN)NC(=O)[C@@H](Cc2c[nH]c3ccccc23)NC(=O)[C@H](Cc2ccc(O)cc2)NC(=O)[C@@H](NC(=O)[C@H](N)Cc2ccccc2)CSSC[C@@H](C(=O)N[C@@H](Cc2ccc3ccccc3c2)C(N)=O)NC1=O` [Analog #7, H2 -D-phe-Cys-Tyr-D-Trp-Lys-Thr-Cys-Nal-NH2] (H-[dF]CY[dW]KTC[2Nal]-NH2; disulfide 2-7), the Ki on NMB receptor stood at 740 ± 160 nM. For the same compound, on GRP receptor [1], the “Amylase Release, analog Alone (10 μM)” value is given as 3 ± 1 % total; the “Amylase Release, analog Plus Bn (0.3 nM)” value is 16 ± 1 % total; the IC50 is more than 10000 nM. The Ki at GRP receptor [2] came out at 750 ± 10 nM.
Taken in the same sequence, the figures for `CC(C)[C@@H]1NC(=O)[C@H](CCCCN)NC(=O)[C@@H](Cc2c[nH]c3ccccc23)NC(=O)[C@H](Cc2ccc(O)cc2)NC(=O)[C@@H](NC(=O)[C@H](N)Cc2ccc3ccccc3c2)CSSC[C@@H](C(=O)N[C@H](Cc2ccc3ccccc3c2)C(N)=O)NC1=O` [Analog #8, H2 -D-Nal-Cys-Tyr-D-Trp-Lys-Val-Cys-D-Nal-NH2] (H-[d2Nal]CY[dW]KVC[d2Nal]-NH2; disulfide 2-7) were 1480 ± 500 nM, 2 ± 1 % total, 14 ± 1 % total, more than 10000 nM and 4100 ± 750 nM.
On the same counts, the results for `CC(C)[C@@H]1NC(=O)[C@H](CCCCN)NC(=O)[C@@H](Cc2c[nH]c3ccccc23)NC(=O)[C@H](Cc2ccc(O)cc2)NC(=O)[C@@H](NC(=O)[C@@H](N)Cc2ccc3ccccc3c2)CSSC[C@@H](C(=O)N[C@H](Cc2ccc3ccccc3c2)C(N)=O)NC1=O` [Analog #9, H2 -Nal-Cys-Tyr-D-Trp-Lys-Val-Cys-D-Nal-NH2] (H-[2Nal]CY[dW]KVC[d2Nal]-NH2; disulfide 2-7) are 590 ± 170 nM, 3 ± 1 % total, 16 ± 1 % total, more than 10000 nM and 1540 ± 180 nM.
Take `CC(C)[C@@H]1NC(=O)[C@H](CCCCN)NC(=O)[C@@H](Cc2c[nH]c3ccccc23)NC(=O)[C@H](Cc2ccc(O)cc2)NC(=O)[C@H](NC(=O)[C@H](N)Cc2ccc3ccccc3c2)CSSC[C@@H](C(=O)N[C@@H](Cc2ccc3ccccc3c2)C(N)=O)NC1=O` [Analog #10, H2 -D-Nal-D-Cys-Tyr-D-Trp-Lys-Val-Cys-Nal-NH2] (H-[d2Nal][dC]Y[dW]KVC[2Nal]-NH2; disulfide 2-7): at NMB receptor, the Ki was 920 ± 350 nM. Also, on GRP receptor [1], the “Amylase Release, analog Alone (10 μM)” value worked out at 3 ± 1 % total; the “Amylase Release, analog Plus Bn (0.3 nM)” value is reported as 16 ± 1 % total; the IC50 is more than 10000 nM. For the same compound, the Ki on GRP receptor [2] amounted to 1500 ± 160 nM.
For the compound `CC(C)[C@@H]1NC(=O)[C@H](CCCCN)NC(=O)[C@@H](Cc2c[nH]c3ccccc23)NC(=O)[C@H](Cc2ccc(O)cc2)NC(=O)[C@@H](NC(=O)[C@H](N)Cc2ccc3ccccc3c2)CSSC[C@H](C(=O)N[C@@H](Cc2ccc3ccccc3c2)C(N)=O)NC1=O` [Analog #11, H2 -D-Nal-Cys-Tyr-D-Trp-Lys-Val-D-Cys-Nal-NH2] (H-[d2Nal]CY[dW]KV[dC][2Nal]-NH2; disulfide 2-7), at NMB receptor, the Ki worked out at 230 ± 70 nM. Further, at NMB receptor (membranes, Table 4), the “fold greater affinity for NMB receptors than mu opioid receptors” value is more than 50 fold. Also, on GRP receptor [1], the “Amylase Release, analog Alone (10 μM)” value is on record as 2 ± 1 % total; the “Amylase Release, analog Plus Bn (0.3 nM)” value was determined as 14 ± 1 % total; the IC50 is more than 10000 nM. Further, the Ki on GRP receptor [2] was found to be 7620 ± 1260 nM.
`CC(C)[C@@H]1NC(=O)[C@H](CCCCN)NC(=O)[C@@H](Cc2c[nH]c3ccccc23)NC(=O)[C@H](Cc2ccc(O)cc2)NC(=O)[C@@H](NC(=O)[C@H](N)Cc2c[nH]c3ccccc23)CSSC[C@@H](C(=O)N[C@@H](Cc2ccc3ccccc3c2)C(N)=O)NC1=O` [Analog #12, H2 -D-Trp-Cys-Tyr-D-Trp-Lys-Val-Cys-Nal-NH2] (H-[dW]CY[dW]KVC[2Nal]-NH2; disulfide 2-7): at NMB receptor, the Ki stood at 1180 ± 520 nM. In addition, at GRP receptor [1], the “Amylase Release, analog Alone (10 μM)” value is on record as 3 ± 1 % total; the “Amylase Release, analog Plus Bn (0.3 nM)” value is listed as 13 ± 1 % total; the 50% inhibitory concentration (IC50) was more than 10000 nM. Also, at GRP receptor [2], the Ki is 2100 ± 150 nM.
`CC(C)[C@@H]1NC(=O)[C@H](Cc2c[nH]cn2)NC(=O)[C@@H](Cc2c[nH]c3ccccc23)NC(=O)[C@H](Cc2ccc(O)cc2)NC(=O)[C@@H](NC(=O)[C@H](N)Cc2ccc3ccccc3c2)CSSC[C@@H](C(=O)N[C@@H](Cc2ccc3ccccc3c2)C(N)=O)NC1=O` [Analog #14] (H-[d2Nal]CY[dW]HVC[2Nal]-NH2; disulfide 2-7; N-terminus assumed): the Ki at NMB receptor is 470 ± 240 nM. In addition, on NMB receptor (membranes, Table 4), the “fold higher affinity for NMB receptors than somatostatin receptors” value stood at 3 fold. Moreover, on GRP receptor [1], the “Amylase Release, analog Alone (10 μM)” value is given as 2 ± 1 % total; the “Amylase Release, analog Plus Bn (0.3 nM)” value is 13 ± 1 % total; the half-maximal inhibitory concentration (IC50) is more than 10000 nM. Further, the Ki at GRP receptor [2] is 3100 ± 700 nM.

As a reminder, the IC50 is the midpoint of a concentration-inhibition curve.
